Molecular target: C-C chemokine receptor type 5 (Homo sapiens, UniProt P51681)
Assay: Calcium Flux Inhibition Experiment
Experimental: 1. […] The medium in each well into which cells were innoculated was removed and 40 μl/well of freshly prepared dye was added. […] The dye was removed. […] FlexStation II was used for detection.

Sequence of C-C chemokine receptor type 5 (P51681 whole entry): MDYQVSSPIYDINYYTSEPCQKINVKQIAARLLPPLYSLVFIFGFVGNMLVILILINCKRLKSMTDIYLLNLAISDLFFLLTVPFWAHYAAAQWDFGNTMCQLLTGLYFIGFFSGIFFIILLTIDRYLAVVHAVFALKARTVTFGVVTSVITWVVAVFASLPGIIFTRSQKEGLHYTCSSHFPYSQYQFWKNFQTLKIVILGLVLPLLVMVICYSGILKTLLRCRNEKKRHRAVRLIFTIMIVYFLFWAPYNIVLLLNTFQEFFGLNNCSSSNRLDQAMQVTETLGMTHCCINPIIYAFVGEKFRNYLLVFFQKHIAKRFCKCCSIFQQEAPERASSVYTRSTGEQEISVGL

CC(=O)N[C@@H](CCN1C2CCC1CC(n1c(C)nnc1C(C)C)C2)c1csc2ccccc12 (stereo partly specified) [US10167299, Example 28]
IC50: 0.068 µM

Reference: BindingDB's records for patent US10167299 (Shanghai Institute of Material Medica, Chinese Academy of …, 2019)
